The values below come from PubChem BioAssay (NCI).

Among the test systems are UO-31 renal; SN12C renal; BT-549 breast; NCI-H460 lung; UACC-62 melanoma; CCRF-CEM leukemia; HOP-92 NSCLC; HCT-116 colon; NCI-H522 lung; SK-OV-3 ovarian; MDA-N; SNB-19 CNS; HCT-15 colon; A549 NSCLC.
Assay in all cases: NCI-60 cell line screen, 48 h

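Tested at 5 concentrations; 48 h exposure; 96-well plates; endpoints linearly interpolated, else capped at highest concentration. TGI: concentration producing complete growth inhibition.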 *1 amine or outer side, *2 acyl side, *3 side chain or, on linkers, in order; H or OH if unused. Where a SMILES comes first, the peptide text is derived from it. [ ]: non-standard residue; d: D form. The star is where a group is joined. X31 = CC(=O)N(C)SCC(N[*:1])C(=O)[*:2]; Fmoc = O=C(OCC1c2ccccc2-c2ccccc21)*; For = O=C*

For the compound `CC(C)(CN)SCc1ccccc1`, the TGI with UO-31 renal, in the assay on SN12C renal, with BT-549 breast, in the assay with NCI-H460 lung, with UACC-62 melanoma and in the assay on CCRF-CEM leukemia was over 100 µM throughout. The TGI in the assay on HOP-92 NSCLC, in the assay with HCT-116 colon, in the assay with NCI-H522 lung, in the assay with SK-OV-3 ovarian, in the assay on MDA-N and in the assay on SNB-19 CNS was over 100 µM each time. Also, the TGI in the assay with HCT-15 colon and with A549 NSCLC was over 100 µM each time.
On to `CCOC(=O)Oc1ccc2c(c1)c(=O)c1c(NCCCN(CC)CC)ccc3nnn2c31`, for which the TGI stood at 15 µM in the assay with UO-31 renal; 19.1 µM with SN12C renal; 32 µM with BT-549 breast; 15.2 µM in the assay with NCI-H460 lung; 29 µM in the assay on UACC-62 melanoma; 6.88 µM in the assay with CCRF-CEM leukemia. The TGI in the assay with HOP-92 NSCLC was determined as 24.6 µM; in the assay on HCT-116 colon it was 15.8 µM; in the assay with NCI-H522 lung, 19.7 µM; in the assay on SK-OV-3 ovarian, 23.4 µM; in the assay on MDA-N, 20.6 µM; in the assay with SNB-19 CNS, 19.5 µM. In addition, the figures for the TGI in the assay with HCT-15 colon and in the assay with A549 NSCLC were 21 µM and 16.9 µM, respectively.
For the compound `CC(=O)/C(=C(/Br)I)c1ccccc1`, the TGI in the assay on UO-31 renal is 25.1 µM; in the assay on SN12C renal it was 17.4 µM; in the assay on BT-549 breast it was 6.33 µM; in the assay on NCI-H460 lung it was 48.3 µM; in the assay with UACC-62 melanoma, over 48.4 µM; in the assay on CCRF-CEM leukemia it was 11.3 µM. Besides, the TGI is 23.8 µM in the assay with HOP-92 NSCLC; 15.2 µM in the assay with HCT-116 colon; 3.11 µM in the assay with NCI-H522 lung; over 64.5 µM in the assay with SK-OV-3 ovarian; 14.8 µM in the assay on MDA-N; 37.5 µM in the assay on SNB-19 CNS. Also, the values for the TGI with HCT-15 colon and with A549 NSCLC were 17.7 µM and 51.7 µM, respectively.
In the case of `COC(=O)[C@@H]1[C@H](O)CC[C@H]2[C@@]1(C)CC[C@@H](C)[C@]2(COC(C)=O)CC(=O)c1ccoc1`, the TGI in the assay on UO-31 renal, with SN12C renal, in the assay with BT-549 breast, with NCI-H460 lung, with UACC-62 melanoma and in the assay on CCRF-CEM leukemia was over 50 µM in each case. For the same compound, the TGI in the assay on HOP-92 NSCLC, in the assay with HCT-116 colon, in the assay with NCI-H522 lung, with SK-OV-3 ovarian, in the assay on MDA-N and with SNB-19 CNS was over 50 µM each time. In addition, the TGI with HCT-15 colon and in the assay with A549 NSCLC was over 50 µM each time.
As for `COC(=O)C1=NN2c3ccccc3CN([C@@H](C)c3ccccc3)C(=O)[C@H]2[C@@H]1C`, the TGI was over 100 µM in the assay on UO-31 renal; over 100 µM with SN12C renal; 95.3 µM in the assay with BT-549 breast; over 100 µM in the assay on NCI-H460 lung; over 100 µM with UACC-62 melanoma; over 100 µM in the assay with CCRF-CEM leukemia. The TGI with HOP-92 NSCLC, in the assay with HCT-116 colon, in the assay with NCI-H522 lung, in the assay with SK-OV-3 ovarian, in the assay with MDA-N and in the assay with SNB-19 CNS was over 100 µM in each case. For the same compound, the TGI in the assay on HCT-15 colon and in the assay with A549 NSCLC was over 100 µM in each case.
For the compound `CC(=O)N(C)SCC(NC(=O)C(Cc1ccccc1)NC(=O)OCC1c2ccccc2-c2ccccc21)C(=O)NC(Cc1ccccc1)C(=O)NC(Cc1cn(C=O)c2ccccc12)C(=O)NC(CCCCNC(=O)OCC1c2ccccc2-c2ccccc21)C(=O)NC(C(=O)NC(CSN(C)C(C)=O)C(=O)NC(C(N)=O)C(C)O)C(C)O` (stereo unspecified) (Fmoc-F[X31]FW(For)K(Fmoc)T[X31]T-NH2; configuration not given here), the TGI was 70.2 µM in the assay with UO-31 renal; over 100 µM with SN12C renal; over 100 µM in the assay with BT-549 breast; over 100 µM with NCI-H460 lung; over 100 µM in the assay on UACC-62 melanoma; over 100 µM with CCRF-CEM leukemia. The TGI in the assay with HOP-92 NSCLC was 62.4 µM; in the assay on HCT-116 colon, over 100 µM; with NCI-H522 lung it was over 100 µM; in the assay on SK-OV-3 ovarian, over 100 µM; in the assay with MDA-N, over 100 µM; with SNB-19 CNS, over 100 µM. Moreover, the TGI in the assay on HCT-15 colon and with A549 NSCLC was over 100 µM throughout.
For `CC/C=C/C(/C=C/C[C@]1(CC)C[C@H](CC)[C@H](CC(=O)O)OO1)CC` (stereo partly specified), the TGI in the assay on UO-31 renal was 0.947 µM; with SN12C renal, 14.7 µM; in the assay with BT-549 breast, 18.3 µM; in the assay with NCI-H460 lung it was 4.25 µM; with UACC-62 melanoma, 12.1 µM; in the assay with CCRF-CEM leukemia, 1.95 µM. In addition, the TGI with HOP-92 NSCLC was found to be 4.72 µM; in the assay on HCT-116 colon, 6.81 µM; with NCI-H522 lung, 3.44 µM; in the assay with SK-OV-3 ovarian, 19.2 µM; with MDA-N, 3.71 µM; with SNB-19 CNS, 12 µM. The values for the TGI in the assay on HCT-15 colon and in the assay on A549 NSCLC were 8.97 µM and 3.99 µM, respectively.
As to `O=C(O)CO/N=C1/C(c2c(O)[nH]c3ccccc23)=Nc2ccccc21`, the TGI in the assay on UO-31 renal, in the assay with SN12C renal, with BT-549 breast, in the assay with NCI-H460 lung, with UACC-62 melanoma and in the assay with CCRF-CEM leukemia was over 100 µM throughout. The TGI in the assay on HOP-92 NSCLC is over 100 µM; with HCT-116 colon it was over 100 µM; in the assay on NCI-H522 lung, over 100 µM; with SK-OV-3 ovarian it was 68.1 µM; in the assay on MDA-N it was over 100 µM; with SNB-19 CNS, over 100 µM. For the same compound, the TGI in the assay on HCT-15 colon and in the assay on A549 NSCLC was over 100 µM in each case.
Turning to `CCSC12CC3c4cccc5c4C(CN5C(=O)c4ccccc4)CC3(O1)N(C)C2=O` (stereo unspecified), the TGI is over 100 µM with UO-31 renal; 62.9 µM in the assay with SN12C renal; 80.7 µM in the assay with BT-549 breast; over 100 µM with NCI-H460 lung; 67.9 µM with UACC-62 melanoma; over 100 µM in the assay on CCRF-CEM leukemia. In addition, the TGI was 71.9 µM in the assay on HOP-92 NSCLC; over 100 µM with HCT-116 colon; 64.7 µM in the assay on NCI-H522 lung; over 100 µM with SK-OV-3 ovarian; 81.6 µM in the assay on MDA-N; over 100 µM in the assay with SNB-19 CNS. For the same compound, the TGI in the assay with HCT-15 colon and with A549 NSCLC was over 100 µM each time.
On to `CC(=O)Nc1nnc(S(=O)(=O)NC(=S)Nc2ccc(Cl)cc2)s1`, for which the TGI with UO-31 renal, with SN12C renal, in the assay with BT-549 breast, in the assay with NCI-H460 lung, in the assay on UACC-62 melanoma and in the assay on CCRF-CEM leukemia was over 100 µM each time. Also, the TGI in the assay on HOP-92 NSCLC, with HCT-116 colon, with NCI-H522 lung, in the assay on SK-OV-3 ovarian, with MDA-N and in the assay on SNB-19 CNS was over 100 µM throughout. The TGI in the assay on HCT-15 colon and with A549 NSCLC was over 100 µM in each case.
`S=C(Nc1cccc(C2(N3CCCCC3)CCCCC2)c1)Nc1cccc(C2(N3CCCCC3)CCCCC2)c1`: the TGI is 31.5 µM with UO-31 renal; over 100 µM in the assay with SN12C renal; over 100 µM in the assay with BT-549 breast; 36.7 µM in the assay with NCI-H460 lung; 33.3 µM with UACC-62 melanoma; 34 µM in the assay on CCRF-CEM leukemia. The TGI in the assay on HOP-92 NSCLC is 43.9 µM; with HCT-116 colon, 48.4 µM; in the assay with NCI-H522 lung it was 41 µM; in the assay with SK-OV-3 ovarian, over 100 µM; in the assay on MDA-N, 33.8 µM; with SNB-19 CNS, over 100 µM. Further, the TGI in the assay with HCT-15 colon and with A549 NSCLC was over 100 µM each time.
With `NCCCCCNOCCCN`, the TGI in the assay with UO-31 renal, in the assay with SN12C renal, in the assay with BT-549 breast, in the assay with NCI-H460 lung, in the assay with UACC-62 melanoma and in the assay with CCRF-CEM leukemia was over 100 µM each time. For the same compound, the TGI in the assay with HOP-92 NSCLC, with HCT-116 colon, with NCI-H522 lung, in the assay on SK-OV-3 ovarian, in the assay on MDA-N and with SNB-19 CNS was over 100 µM throughout. The TGI with HCT-15 colon and with A549 NSCLC was over 100 µM each time.
Consider `Cc1cn2c(/C=C3/C(=O)Nc4ccccc43)c(C)nc2s1`, for which the TGI was 61.4 µM in the assay on UO-31 renal; 42.2 µM in the assay with SN12C renal; over 100 µM in the assay with BT-549 breast; 16.1 µM with NCI-H460 lung; over 100 µM in the assay on UACC-62 melanoma; 8.91 µM in the assay on CCRF-CEM leukemia. Further, the TGI with HOP-92 NSCLC is over 100 µM; with HCT-116 colon it was 15.5 µM; with NCI-H522 lung it was 21.5 µM; in the assay on SK-OV-3 ovarian, 25.7 µM; in the assay on MDA-N, 0.492 µM; in the assay on SNB-19 CNS, over 100 µM. Also, the TGI is over 100 µM with HCT-15 colon and 50.7 µM in the assay with A549 NSCLC.
As for `CNc1ncnc2c1cnn2Cc1cn(CCCCO)nn1`, the TGI with UO-31 renal, in the assay on SN12C renal, in the assay with BT-549 breast, in the assay with NCI-H460 lung, with UACC-62 melanoma and with CCRF-CEM leukemia was over 100 µM throughout. The TGI in the assay with HOP-92 NSCLC, in the assay with HCT-116 colon, with NCI-H522 lung, in the assay with SK-OV-3 ovarian, in the assay with MDA-N and in the assay on SNB-19 CNS was over 100 µM in each case. For the same compound, the TGI in the assay with HCT-15 colon and in the assay on A549 NSCLC was over 100 µM throughout.
